Results: patent US20240082279A1, “COMPOSITIONS AND METHODS FOR PREVENTING AND/OR TREATING SCARS” (L'Oreal, priority 2022, published 2024)

Columns and labels:
Type in all cases: cell-based, human
[1] = test system: laser wounded reconstructed skin (SoftSkin™); assay: H&E histology of laser wounded reconstructed skin (SoftSkin™); conditions: SoftSkin™ model after CO2 laser; 10 uL working solution topically every 24 hours, Day 0 to Day 2; sections Day 0, 2, 4; FIG. 2
Method: (§1) Surgical skin samples were be taken from adults and subjected to the 0.25% trypsin dermis/epidermis separation method described in Rheinwald to obtain suspensions of normal human keratinocytes (NHK) and dermal fibroblasts. See Rheinwald J. G., Green H.: Serial cultivation of strains of human epidermal keratinocytes: The formation of keratinizing colonies from single cells. Cell. 6(3):331-43. 1975. The separated normal human dermal fibroblasts were cultured in DMEM+10% fetal calf serum. The fibroblasts were cast onto a lower layer of proto-SoftSkin™ gel. A full-thickness dermal layer equivalent was obtained after contraction of a mixture of Collagen Type I and human normal fibroblasts. The separated normal human keratinocyte cell cultures were initiated using the 3T3 feeder-layer technique described in Rheinwald J. G., Green H.: Epidermal growth factor and the multiplication of cultured human epidermal keratinocytes. Nature 265:421-424 (1977). The separated normal human keratinocytes were seeded on a lattice on the top layer of a proto-SoftSkin™ gel and the culture was left for 7 days in submerged conditions at 37° C. in the presence of 5% carbon dioxide in MEM containing 10% fetal calf serum, allowing the cells to proliferate and form an epidermal layer. Then, the culture was raised upwards to air-liquid interface for an additional 7 days to grow reconstructed skin models (SoftSkin™). […]

[2] = test system: Filaggrin; assay: Filaggrin immunofluorescence staining in laser wounded reconstructed skin; conditions: 3% in 3% propylene glycol, Day 2 SoftSkin™ after CO2 laser, vs laser alone, laser+vehicle and untreated control, FIG. 4
Method: as §1

[3] = test system: Ki67; assay: Ki67 immunofluorescence staining in laser wounded reconstructed skin; conditions: 3% in 3% propylene glycol, Day 2 SoftSkin™ after CO2 laser, vs laser alone, laser+vehicle and untreated control, FIG. 6
Method: as §1

[4] = test system: DKK-1; assay: DKK-1 secretion, Luminex Assay of medium supernatant from reconstructed skin; conditions: 3% in 3% propylene glycol, day 1 SoftSkin™ after CO2 laser, vs laser alone, laser+vehicle, untreated control
Method: Surgical skin samples were be taken from adults and subjected to the 0.25% trypsin dermis/epidermis separation method described in Rheinwald to obtain suspensions of normal human keratinocytes (NHK) and dermal fibroblasts. See Rheinwald J. G., Green H.: Serial cultivation of strains of human epidermal keratinocytes: The formation of keratinizing colonies from single cells. Cell. 6(3):331-43. 1975. The separated normal human dermal fibroblasts were cultured in DMEM+10% fetal calf serum. The fibroblasts were cast onto a lower layer of proto-SoftSkin™ gel. A full-thickness dermal layer equivalent was obtained after contraction of a mixture of Collagen Type I and human normal fibroblasts. The separated normal human keratinocyte cell cultures were initiated using the 3T3 feeder-layer technique described in Rheinwald J. G., Green H.: Epidermal growth factor and the multiplication of cultured human epidermal keratinocytes. Nature 265:421-424 (1977). The separated normal human keratinocytes were seeded on a lattice on the top layer of a proto-SoftSkin™ gel and the culture was left for 7 days in submerged conditions at 37° C. in the presence of 5% carbon dioxide in MEM containing 10% fetal calf serum, allowing the cells to proliferate and form an epidermal layer. Then, the culture was raised upwards to air-liquid interface for an additional 7 days to grow reconstructed skin models (SoftSkin™).
The reconstructed skin samples derived from normal human dermal fibroblasts and normal human keratinocytes were subjected to CO2 laser treatment. […]
Medium supernatant was collected from the reconstructed skin samples. DKK-1 secretions were measured using a Luminex Assay (R&D Systems) in a panel following the manufacturer's guidelines. […]
Each experiment in Examples 2-5 was replicated three times. For immunostaining study, one cryosection per replicate and 4 fluorescence images/section were taken for data analysis. All the data were statistically analyzed by Graph Pad Prism and presented as mean±standard deviation unless otherwise specified. […]

[5] = test system: α-SMA; assay: α-SMA ELISA of lysed reconstructed skin tissue; conditions: 3% in 3% propylene glycol, Day 2 SoftSkin™ after CO2 laser, vs laser treated tissues not further treated, FIG. 8
Method: Surgical skin samples were be taken from adults and subjected to the 0.25% trypsin dermis/epidermis separation method described in Rheinwald to obtain suspensions of normal human keratinocytes (NHK) and dermal fibroblasts. See Rheinwald J. G., Green H.: Serial cultivation of strains of human epidermal keratinocytes: The formation of keratinizing colonies from single cells. Cell. 6(3):331-43. 1975. The separated normal human dermal fibroblasts were cultured in DMEM+10% fetal calf serum. The fibroblasts were cast onto a lower layer of proto-SoftSkin™ gel. A full-thickness dermal layer equivalent was obtained after contraction of a mixture of Collagen Type I and human normal fibroblasts. […]
Punched Day 2 normal human tissue cultures tissues were submerged with Tissue Lysis Buffer (R&D Systems) and cryogenically ground 3 times, and further lysed on ice for 30 minutes. […] Aliquots of the supernatant were removed and stored at −80° C. until assayed. α-SMA concentration in ECM was determined using a BCA protein array kit (Absin, abs9232-500) and normalized before ELISA assay (alpha SMA Human ELISA Kit #Abcam, ab240678). […]
Each experiment in Examples 2-5 was replicated three times. For immunostaining study, one cryosection per replicate and 4 fluorescence images/section were taken for data analysis. […]

Compound	Keratinocyte invasion of laser dermal injury sites (H&E stained cross-sections) [1]	Filaggrin expression (relative fluorescence intensity, Image J) [2]	Filaggrin expression (relative fluorescence intensity, Image J) ([2]; listed as C-glycoside)	Ki67 expression (ratio of Ki67 positive cells/total cell number in basal layer) [3]	Ki67 expression (ratio of Ki67 positive cells/total cell number in basal layer) ([3]; listed as C-glycoside)	DKK-1 secretion/expression ([4]; FIG. 7)	DKK-1 secretion/expression ([4]; FIG. 7, listed as C-glycoside)	DKK-1 secretion/expression ([4]; FIG. 7, listed as Proxylane)	α-SMA expression [5]	α-SMA expression ([5]; listed as C-glycoside)
hyaluronic acid [reference compound]	not	–	–	–	–	–	–	–	–	–
CC(O)C[C@@H]1OC[C@@H](O)[C@H](O)[C@H]1O (stereo partly drawn) [Hydroxypropyl tetrahydropyrantriol, C13-D-xylopyranoside2-hydroxypropane]	Keratinocytes invaded laser dermal injury sites	increased Filaggrin expression	significantly higher level	increased Ki67 expression	significantly higher level	enhanced expression of DKR-1	restored DKK-1 secretion to a level similar to control	enhancing the expression of DKK-1	reduced α-SMA expression in a statistically significant manner	reduced the level of α-smooth muscle actin in laser wounded skin in a statistically significant manner
